Source: US20250066290A1, “DHODH INHIBITORS CONTAINING A CARBOXYLIC ACID BIOISOSTERE” (IMMUNIC AG, priority 2021, published 2025)
Read-outs that look alike come from different tables or passages of the source.

Columns and labels:
SARS-CoV-2 = SARS-CoV-2 viral replication (YFP) assay; assay type: cell-based; details: Severe acute respiratory syndrome coronavirus 2, read-out: EC50 range
[1] = molecular target: N-terminally truncated recombinant hDHODH enzyme (Homo sapiens, UniProt Q02127); experiment: biochemical; assay type: biochemical
Method: Briefly, the hDHODH concentration was adjusted in a way that an average slope of approximately 0.2 AU/min served as the positive control (e.g. without inhibitor). The standard assay mixture contained 60 μM 2,6-dichloroindophenol, 50 μM decylubiquinone and 100 μM dihydroorotate. The hDHODH enzyme with or without at least six different concentrations of the compounds was added and measurements were performed in 50 mM TrisHCl, 150 mM KCl and 0.1% Triton X-100 at pH 8.0 and at 30° C. The reaction was started by adding dihydroorotate and measuring the absorption at 600 nm for 2 min. For the determination of the IC50 values, each data point was recorded in triplicate. […].

[2] = molecular target: human URAT1 uptake transporter (Homo sapiens (Human), UniProt Q96S37); experiment: Human URAT1 uptake transporter assay (MDCKII-URAT1-LV, SOLVO); assay type: cell-based; details: 10 μM compound, 20 μM uric acid probe substrate
Method: In the human URAT1 uptake transporter assay (host cell line: MDCKII), the accumulation of the probe substrate in the presence of a DHODH inhibitor (at a concentration of 10 μM) into cells was measured. The assay was executed at SOLVO with catalogue number MDCKII-URAT1-LV. 20 μM uric acid served as probe substrate. Reference inhibitor was benzbromarone at a concentration of 300 μM, which served as internal control.

[3] = human DHODH assay, read-out: IC50 range

Sequence of N-terminally truncated recombinant hDHODH enzyme (Q02127 whole entry, looked up, the tested form may be a part): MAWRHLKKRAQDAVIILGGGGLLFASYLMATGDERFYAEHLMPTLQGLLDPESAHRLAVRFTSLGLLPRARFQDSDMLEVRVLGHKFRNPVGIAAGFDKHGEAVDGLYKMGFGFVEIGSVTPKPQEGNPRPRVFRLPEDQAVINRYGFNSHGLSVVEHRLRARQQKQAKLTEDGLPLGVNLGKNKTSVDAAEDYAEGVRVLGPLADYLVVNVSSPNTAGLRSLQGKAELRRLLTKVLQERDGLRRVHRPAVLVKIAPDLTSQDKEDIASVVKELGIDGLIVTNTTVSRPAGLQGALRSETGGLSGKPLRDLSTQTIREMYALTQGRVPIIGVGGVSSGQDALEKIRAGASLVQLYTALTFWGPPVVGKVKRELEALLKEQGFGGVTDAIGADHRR
Sequence of human URAT1 uptake transporter (Q96S37 whole entry): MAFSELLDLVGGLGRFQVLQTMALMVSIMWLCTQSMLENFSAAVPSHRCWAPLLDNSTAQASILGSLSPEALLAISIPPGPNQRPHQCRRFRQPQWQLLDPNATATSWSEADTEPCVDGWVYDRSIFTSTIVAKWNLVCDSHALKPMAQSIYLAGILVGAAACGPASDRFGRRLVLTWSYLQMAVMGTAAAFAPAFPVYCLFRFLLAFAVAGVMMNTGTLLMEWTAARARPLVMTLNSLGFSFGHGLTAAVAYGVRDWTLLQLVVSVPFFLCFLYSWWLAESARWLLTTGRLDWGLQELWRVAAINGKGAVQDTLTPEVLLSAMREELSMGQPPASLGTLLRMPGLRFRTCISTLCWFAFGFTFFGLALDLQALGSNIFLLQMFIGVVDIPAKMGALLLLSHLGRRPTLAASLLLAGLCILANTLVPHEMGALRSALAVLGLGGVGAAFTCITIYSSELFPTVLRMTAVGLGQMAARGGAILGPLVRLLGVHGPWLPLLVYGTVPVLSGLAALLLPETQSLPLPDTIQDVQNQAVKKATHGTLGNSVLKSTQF

Compound | EC50 (SARS-CoV-2) [µM] | IC50 [1, 3] [µM] | human URAT1 uptake transporter stimulation @ 10 μM [2] [%] | IC50 [1] [µM]
[2H]C([2H])([2H])Oc1cccc(-c2c(F)c(F)c(NC(=O)c3sc(C)cc3C(=O)NOC)c(F)c2F)c1 [Example 17-2, N3-methoxy-5-methyl-N2-(2,3,5,6-tetrafluoro-3′-(methoxy-d3)-[1,1′-biphenyl]-4-yl)thiophene-2,3-dicarboxamide] | < 1 | < 0.1 |  | 
NS(=O)(=O)NC(=O)C1=C(C(=O)Nc2c(F)c(F)c(-c3cccc(OC(F)(F)F)c3)c(F)c2F)CCC1 [Example 2, N^1-Sulfamoyl-N^2-(2,3,5,6-tetrafluoro-3′-(trifluoromethoxy)-[1,1′-biphenyl]-4-yl)cyclopent-1-ene-1,2-dicarboxamide] | 10 to 25 | < 0.1 | 72 | 
[2H]C([2H])([2H])Oc1ccccc1-c1cc(F)c(NC(=O)C2=C(C(=O)NS(C)(=O)=O)CCC2)c(F)c1 [1/6] | 25 to 50 | < 0.1 |  | 
[2H]C([2H])([2H])Oc1cccc(-c2c(F)c(F)c(NC(=O)C3=C(C(=O)NOCCO)CCC3)c(F)c2F)c1 [4/23] | < 1 | < 0.1 |  | 
[2H]C([2H])([2H])Oc1ccccc1-c1c(F)c(F)c(NC(=O)C2=C(C(=O)NOC)CCC2)c(F)c1F [4/26] | < 1 | < 0.1 |  | 
[2H]C([2H])([2H])Oc1cccc(-c2c(F)c(F)c(NC(=O)c3c[nH]cc3C(=O)NOC)c(F)c2F)c1 [4/30] | < 10 |  |  | 0.1 to 1
[2H]C([2H])([2H])Oc1cccc(-c2c(F)c(F)c(NC(=O)C3=C(C(=O)NS(N)(=O)=O)COC3)c(F)c2F)c1 [Example 2-1/1] | 10 to 25 | < 0.1 |  | 
CONC(=O)C1=C(C(=O)Nc2c(F)cc(-c3cccc4ocnc34)cc2F)CCC1 [4/14] | < 10 |  |  | 1 to 10
[2H]C([2H])([2H])Oc1cccc(-c2cc(F)c(NC(=O)C3=C(C(=O)NOCC#N)CCC3)c(F)c2)c1 [Example 4/3] | 10 to 25 |  |  | 1 to 10
[2H]C([2H])([2H])Oc1cccc(-c2c(F)c(F)c(NC(=O)c3cscc3C(=O)NOC)c(F)c2F)c1 [4/28] | < 1 | < 0.1 |  | 
[2H]C([2H])([2H])Oc1cccc(-c2cc(F)c(NC(=O)C3=C(C(=O)NS(N)(=O)=O)COC3)c(F)c2)c1 [Example 2-1, N^3-(3,5-Difluoro-3′-(methoxy-d3)-[1,1′-biphenyl]-4-yl)-N^4-sulfamoyl-2,5-dihydrofuran-3,4-di-carboxamide] | 10 to 25 |  |  | 0.1 to 1
